Several values for one entry are separate records, joined by “and”; a condition that tells them apart may be missing. Equal entries are not always repeated. Where two headings read alike, the source gives them in different places. Marks after values point to notes of the source that are not given here.
How the values were obtained:
[1] = molecular target: T1, human PTEFb (CDK9/Cyclin T1) (Homo sapiens, UniProt P50750); test: Surface Plasmon Resonance PTEFb (Method 8); type: binding; conditions: 25° C., experimental parameters A-G per value; for Target resident time: 1/koff; for koff: read-out: Dissociation rate constant koff
T1 construct: purchased ProQinase, Freiburg, Germany
Description: 8. Surface Plasmon Resonance PTEFb
The ability of the compounds according to the invention to bind human PTEFb may be determined using surface plasmon resonance (SPR). KD values and koff values may be measured using a Biacore® T200 instrument (GE Healthcare, Uppsala, Sweden).
For SPR measurements, recombinant human PTEFb (CDK9/Cyclin T1 recombinant human active protein kinase purchased from ProQinase, Freiburg, Germany) is immobilized using standard amine coupling (Johnsson B et al, Anal Biochem. 1991 Nov. 1; 198(2):268-77). Briefly, carboxymethylated dextran biosensor chips (CM7, GE Healthcare) are activated with N-ethyl-N′-(3-dimethylaminopropyl)-carbodiimide hydrochloride (EDC) and N-hydroxysuccinimide (NHS) according to the supplier's instructions. Human PTEFb is diluted in 1×HBS-EP+ (GE Healthcare) and injected on the activated chip surface. Subsequently, a 1:1 solution of 1 M ethanolamine-HCl (GE Healthcare) and 1×HBS-EP is injected to block unreacted groups, resulting in approximately 4000 response units (RU) of immobilized protein. A reference surface is generated by treatment with NHS-EDC and ethanolamine-HCl. Compounds are dissolved in 100% dimethylsulfoxide (DMSO, Sigma-Aldrich, Germany) to a concentration of 10 mM and subsequently diluted in running buffer (1×HBS-EP+ pH 7.4 [generated from HBS-EP+ Buffer 10× (GE Healthcare): 0.1 M HEPES, 1.5 M NaCl, 30 mM EDTA and 0.5% v/v Surfactant P20], 1% v/v DMSO). For kinetic measurements, serial dilutions of compound (0.82 nM up to 2 μM) are injected over immobilized protein. Binding kinetics is measured at 25° C. with a flow rate of 50 μl/min in running buffer. Compound concentrations are injected for 60 s followed by a dissociation time of 1800 s. The resulting sensorgrams are double-referenced against the reference surface as well as against blank injections.
The double-referenced sensorgrams are fit to a simple reversible Langmuir 1:1 reaction mechanism as implemented in the Biacore® T200 evaluation software 2.0 (GE Healthcare). In cases were full compound dissociation has not occurred at the end of the dissociation phase, the Rmax parameter (response at saturation) is fit as local variable. In all other cases, Rmax is fit as global variable.
Slight variations of experimental parameters are indicated by letters (A-G): […]

[2] = molecular target: T1, human PTEFb (CDK9/Cyclin T1); test: Surface Plasmon Resonance PTEFb (Method 8); type: binding; conditions: 37° C., experimental parameters E; for Target resident time: 1/koff; for koff: read-out: Dissociation rate constant koff

T1 sequence (P50750 whole entry): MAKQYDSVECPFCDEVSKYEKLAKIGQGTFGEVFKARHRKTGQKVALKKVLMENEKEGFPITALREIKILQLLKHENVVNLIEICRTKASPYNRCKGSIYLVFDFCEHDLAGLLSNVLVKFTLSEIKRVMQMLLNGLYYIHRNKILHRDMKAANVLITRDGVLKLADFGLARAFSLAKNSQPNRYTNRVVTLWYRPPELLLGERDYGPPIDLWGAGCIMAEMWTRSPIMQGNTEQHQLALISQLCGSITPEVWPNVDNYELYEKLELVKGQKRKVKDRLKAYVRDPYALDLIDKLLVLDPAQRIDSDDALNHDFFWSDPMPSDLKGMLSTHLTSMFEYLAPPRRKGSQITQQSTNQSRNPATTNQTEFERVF
T1 sequence (O60563 whole entry partner): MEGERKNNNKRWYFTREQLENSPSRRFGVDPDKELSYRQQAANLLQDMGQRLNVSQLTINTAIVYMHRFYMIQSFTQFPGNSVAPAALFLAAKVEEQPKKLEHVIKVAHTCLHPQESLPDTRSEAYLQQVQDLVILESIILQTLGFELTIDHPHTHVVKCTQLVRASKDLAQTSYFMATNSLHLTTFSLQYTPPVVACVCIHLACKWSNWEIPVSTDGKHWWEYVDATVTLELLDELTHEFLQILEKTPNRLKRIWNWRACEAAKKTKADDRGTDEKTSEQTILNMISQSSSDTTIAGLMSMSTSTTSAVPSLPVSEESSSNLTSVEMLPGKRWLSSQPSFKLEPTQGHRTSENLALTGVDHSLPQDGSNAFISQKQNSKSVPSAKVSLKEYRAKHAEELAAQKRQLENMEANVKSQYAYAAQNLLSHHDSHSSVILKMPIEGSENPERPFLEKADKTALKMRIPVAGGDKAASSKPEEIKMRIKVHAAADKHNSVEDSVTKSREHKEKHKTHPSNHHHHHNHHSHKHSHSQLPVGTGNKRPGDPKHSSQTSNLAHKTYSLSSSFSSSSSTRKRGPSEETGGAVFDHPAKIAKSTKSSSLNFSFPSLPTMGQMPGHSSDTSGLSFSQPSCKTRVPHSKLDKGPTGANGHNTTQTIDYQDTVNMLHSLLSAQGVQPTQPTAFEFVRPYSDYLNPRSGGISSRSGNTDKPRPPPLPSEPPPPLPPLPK

Target resident time [1] | Dissociation rate constant koff [1] [s⁻¹] | koff [1] [s⁻¹] | Target resident time [2] | koff [2] [s⁻¹] | SMILES
17.2 min | – | 0.000968 | – | – | C[S+]([O-])Cc1cc2nc(c1)OCCCCc1cc(F)ccc1-c1cc(ncc1F)N2 (racemic) [Example 5, (rac)-2,18-Difluoro-9-[(methylsulfinyl)methyl]-13,14,15,16-tetrahydro-6H-7,11-(azeno)-5,1-(metheno)-12,4,6-benzoxadiazacyclooctadecine]
>666* min | – | < 2.5e-05 | – | – | CC(C)(C)OC(=O)N=S(C)(=O)Cc1cc2nc(c1)Nc1cc(c(F)cn1)-c1ccc(F)cc1OCCCN2 (racemic) [Example 7, (rac)-tert-butyl[{[15,19-difluoro-2,3,4,5-tetrahydro-11H-10,6-(azeno)-16,12-(metheno)-1,5,11,13-benzoxatriazacyclooctadecin-8-yl]methyl}(methyl)oxido-λ^6-sulfanylidene]carbamate]
>666* min | – | < 2.5e-05 | – | – | CN1CCCCOc2cc(F)ccc2-c2cc(ncc2F)Nc2cc(CS(C)(=N)=O)cc1n2 (racemic) [Example 11, (rac)-16,20-difluoro-6-methyl-9-[(S-methylsulfonimidoyl)methyl]-3,4,5,6-tetrahydro-2H-7,11-(azeno)-17,13-(metheno)-1,6,12,14-benzoxatriazacyclononadecine]
4.8* min | – | 0.00345 | – | – | C[S+]([O-])Cc1cc2nc(c1)OCCCCCc1cc(F)ccc1-c1cc(ncc1F)N2 (racemic) [Example 19, (rac)-2,19-difluoro-9-[(methylsulfinyl)methyl]-14,15,16,17-tetrahydro-6H,13H-7,11-(azeno)-5,1-(metheno)-12,4,6-benzoxadiazacyclononadecine]
14.7* min | – | 0.00113 | – | – | CS(=N)(=O)Cc1cc2nc(c1)OCCCCCc1cc(F)ccc1-c1cc(ncc1F)N2 (racemic) [Example 20, (rac)-2,19-difluoro-9-[(S-methylsulfonimidoyl)methyl]-14,15,16,17-tetrahydro-6H,13H-7,11-(azeno)-5,1-(metheno)-12,4,6-benzoxadiazacyclononadecine]
14.6 min | – | 0.00114 | – | – | CSCc1cc2nc(c1)OCCCCc1cc(F)ccc1-c1cc(ncc1F)N2 [Example 4, 2,18-Difluoro-9-[(methylsulfanyl)methyl]-13,14,15,16-tetrahydro-6H-7,11-(azeno)-5,1-(metheno)-12,4,6-benzoxadiazacyclooctadecine]

The next lines start with the compound.

SMILES | Target resident time [1] | Dissociation rate constant koff [1] [s⁻¹] | koff [1] [s⁻¹] | Target resident time [2] | koff [2] [s⁻¹]
CS(=O)(Cc1cc2nc(c1)Nc1cc(c(F)cn1)-c1ccc(F)cc1OCCCCN2)=NC(=O)OCc1ccccc1 (racemic) [Example 2, (rac)-Benzyl[{[16,20-difluoro-3,4,5,6-tetrahydro-2H,12H-11,7-(azeno)-13,17-(metheno)-1,6,12,14-benzoxatriazacyclononadecin-9-yl]methyl}(methyl)oxido-λ^6-sulfanylidene]carbamate] | 44.9 min and 33.1 min | 0.000504 | 0.000371 | – | –
CC(C)(C)OC(=O)N=S(C)(=O)Cc1cc2cc(c1)OCCCCNc1cc(F)ccc1-c1nc(ncc1F)N2 (racemic) [Example 15, (rac)-tert-butyl[{[16,20-difluoro-2,3,4,5-tetrahydro-1H,12H-13,17-(azeno)-11,7-(metheno)-6,1,12,14-benzoxatriazacyclononadecin-9-yl]methyl}(methyl)oxido-λ^6-sulfanylidene]carbamate] | > 666 min and 372.9 min | 4.47e-05 | < 2.5e-05 | – | –
CS(=N)(=O)Cc1cc2cc(c1)OCCCCNc1cc(F)ccc1-c1nc(ncc1F)N2 (racemic) [Example 16, (rac)-16,20-difluoro-9-[(S-methylsulfonimidoyl)methyl]-2,3,4,5-tetrahydro-1H-17,13-(azeno)-7,11-(metheno)-6,1,12,14-benzoxatriazacyclononadecine] | – | – | – | 46.3* min | 0.00036
CN1CCCCNc2cc(F)ccc2-c2nc(ncc2F)Nc2cc(CS(C)(=N)=O)cc1c2.O=CO (racemic) [Example 17, (rac)-16,20-difluoro-6-methyl-9-[(S-methylsulfonimidoyl)methyl]-1,2,3,4,5,6-hexahydro-12H-17,13-(azeno)-11,7-(metheno)-1,6,12,14-benzotetraazacyclononadecine; salt with formic acid] | – | – | – | 115.7* min | 0.000144
CS(=N)(=O)Cc1cc2cc(c1)OCCCCSc1cc(F)ccc1-c1nc(ncc1F)N2 (racemic) [Example 22, (rac)-16,20-difluoro-9-[(S-methylsulfonimidoyl)methyl]-2,3,4,5-tetrahydro-12H-17,13-(azeno)-11,7-(metheno)-6,1,12,14-benzoxathiadiazacyclononadecine] | – | – | – | 17.5* min | 0.000954
CN1CCCCOc2cc(F)ccc2-c2nc(ncc2F)Nc2cc(CS(C)(=N)=O)cc1c2 (racemic) [Example 23, (rac)-16,20-difluoro-6-methyl-9-[(S-methylsulfonimidoyl)methyl]-3,4,5,6-tetrahydro-2H,12H-13,17-(azeno)-11,7-(metheno)-1,6,12,14-benzoxatriazacyclononadecine] | 87.3* min | – | 0.000191 | – | –
